Data on four molecules can be found in ChEMBL document CHEMBL1201862, “PubChem BioAssay data set” (2004).

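How tested: cells in 96-well plates exposed to compound for 48 hours at five concentrations. The concentration for 50% growth inhibition is given as GI50.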 Calls of active or inactive are those of the source. No stated cut-off is given here; in the data, active = GI50 up to about 1.1 µM and inactive = higher. Where only a bound is given, the exact number is not on record here.

Some test systems named below: K562; HT-29; Malme-3M; SW-620; A549; UACC-62; PC-3; KM12; SR; OVCAR-5; M14; CAKI-1; NCI-H23; Hs-578T; ACHN; SNB-75; NCI/ADR-RES; SK-OV-3; LOX IMVI.
Holding throughout (test): inhibition of tumour cell growth, NCI panel, 48 h

As for `CC(C)(C)OC(=O)NC(Cc1ccccc1)NC(=O)NC(=O)OCc1ccccc1` (stereo not given), the GI50 with K562 is 74.5 µM (inactive); in the test on HT-29, > 100 µM (inactive); with Malme-3M, 41.8 µM (inactive); in the test with SW-620 it was 59.6 µM (inactive); with A549, 70.8 µM (inactive); in the test with UACC-62, 25.3 µM (inactive). Moreover, the GI50 in the test with PC-3 was 18.7 µM (inactive); in the test on KM12, 59.8 µM (inactive); in the test on SR, > 100 µM (inactive); in the test on OVCAR-5, > 100 µM (inactive); in the test on M14, 57.7 µM (inactive); with CAKI-1, 24 µM (inactive). The GI50 is 87.9 µM (inactive) in the test with NCI-H23; 44 µM (inactive) in the test with Hs-578T; 39.1 µM (inactive) with ACHN; 32.8 µM (inactive) in the test with SNB-75; 55.7 µM (inactive) in the test with NCI/ADR-RES; 54.6 µM (inactive) in the test with SK-OV-3.
Consider `Brc1cc2nn(-c3ccccc3)nc2c2nonc12`, for which the GI50 in the test on K562, in the test with HT-29, in the test with Malme-3M, with SW-620, in the test on A549 and in the test with UACC-62 was > 100 µM (inactive) throughout. The GI50 in the test on PC-3, in the test with KM12, with SR, in the test with OVCAR-5, with M14 and with LOX IMVI was > 100 µM (inactive) each time. The GI50 with CAKI-1, in the test with NCI-H23, in the test with Hs-578T, in the test with ACHN, in the test with SNB-75 and with NCI/ADR-RES was > 100 µM (inactive) throughout. For the same molecule, the GI50 with SK-OV-3 is > 100 µM (inactive).
As to `CN(C)CCNc1ccc([N+](=O)[O-])c2nc3ccccc3c(N)c12`, the GI50 in the test with K562 is 0.341 µM (active); with HT-29 it was 0.318 µM (active); with Malme-3M, 0.443 µM (active); in the test with SW-620, 0.297 µM (active); in the test on A549 it was 0.439 µM (active); in the test on UACC-62 it was 1.15 µM (inactive). In addition, the GI50 in the test with PC-3 was 0.405 µM (active); in the test on KM12, 0.381 µM (active); in the test with SR, 0.282 µM (active); in the test with OVCAR-5, > 10 µM (inactive); in the test with M14, 0.574 µM (active); with LOX IMVI, 0.375 µM (active). For the same molecule, the GI50 was 1.84 µM (inactive) in the test with CAKI-1; 0.889 µM (active) in the test on NCI-H23; 3.96 µM (inactive) with Hs-578T; 0.313 µM (active) with ACHN; 0.841 µM (active) in the test with SNB-75; 0.569 µM (active) in the test on NCI/ADR-RES. Also, the GI50 in the test on SK-OV-3 is 0.152 µM (active).
On to `COc1cc(N(CCC#N)CCC#N)ccc1C(=N/NC(=O)c1cc(Br)ccc1O)/N=N/c1ccc(C)cc1`, for which the GI50 in the test on K562 is 37.2 µM (inactive); in the test with HT-29, 32.6 µM (inactive); with Malme-3M, 29.3 µM (inactive); in the test with SW-620 it was 29.7 µM (inactive); in the test on A549 it was 28.8 µM (inactive); with UACC-62, 18.5 µM (inactive). For the same molecule, the GI50 with PC-3 is 20.6 µM (inactive); in the test on KM12 it was 17 µM (inactive); with SR, 24.3 µM (inactive); in the test with OVCAR-5 it was 61.4 µM (inactive); in the test on M14, 28.3 µM (inactive); in the test with LOX IMVI, 17.9 µM (inactive). Further, the GI50 in the test on CAKI-1 was 27.9 µM (inactive); in the test on NCI-H23, 17 µM (inactive); with Hs-578T, 40.2 µM (inactive); in the test on ACHN it was 27 µM (inactive); with SNB-75, 22.6 µM (inactive); in the test on NCI/ADR-RES, 27.1 µM (inactive). In addition, the GI50 in the test on SK-OV-3 is 24.2 µM (inactive).
